Source: the kinase profiling compilation of Christmann-Franck et al. (2016)

What was measured:
Test in all cases: radiometric filter-binding kinase assay
[1] = biological target: AURKB (human) (UniProt Q96GD4)
[2] = biological target: BRSK2 (human) (UniProt Q8IWQ3)
[3] = biological target: CAMKK2 (human) (UniProt Q96RR4)
[4] = biological target: CHEK1 (human) (UniProt O14757)
[5] = biological target: CLK2 (human) (UniProt P49760)
[6] = biological target: CSNK2A1 (human) (UniProt P68400)
[7] = biological target: CaMK1 (human) (UniProt Q14012)
[8] = biological target: DAPK1 (human) (UniProt P53355)
[9] = biological target: DYRK1A (human) (UniProt Q13627)
[10] = biological target: DYRK3 (human) (UniProt O43781)
[11] = biological target: EPHB2 (human) (UniProt P29323)
[12] = biological target: FGFR1 (human) (UniProt P11362)
[13] = biological target: GCK (human) (UniProt Q12851)
[14] = biological target: HIPK1 (human) (UniProt Q86Z02)
[15] = biological target: HIPK2 (human) (UniProt Q9H2X6)
[16] = biological target: IGF1R (human) (UniProt P08069)
[17] = biological target: JAK2 JH1 JH2 (human) (UniProt O60674)
[18] = test system: LCK (mouse); conditions: accession and sequence are those of the human protein
[19] = biological target: MAPK10 (human) (UniProt P53779)
[20] = biological target: MAPK11 (human) (UniProt Q15759)
[21] = biological target: MAPK13 (human) (UniProt O15264)
[22] = biological target: MAPK8 (human) (UniProt P45983)
[23] = biological target: MAPKAPK5 (human) (UniProt Q8IW41)
[24] = biological target: MARK3 (human) (UniProt P27448)
[25] = biological target: MINK1 (human) (UniProt Q8N4C8)
[26] = biological target: MKNK1 (human) (UniProt Q9BUB5)
[27] = test system: PAK2 (human), Q13177 [T402E]
[28] = biological target: PHKG1 (human) (UniProt Q16816)
[29] = biological target: PIM3 (human) (UniProt Q86V86)
[30] = test system: ROCK2 (rat); conditions: accession and sequence are those of the human protein
[31] = test system: SGK1 (human), O00141 [S422D]
[32] = biological target: SRPK1 (human) (UniProt Q96SB4)
[33] = biological target: STK3 (human) (UniProt Q13188)
[34] = biological target: TAOK1 (human) (UniProt Q7L7X3)
[35] = biological target: TBK1 (human) (UniProt Q9UHD2)
[36] = biological target: YES1 (human) (UniProt P07947)

Sequence of AURKB (human) (Q96GD4 whole entry, looked up): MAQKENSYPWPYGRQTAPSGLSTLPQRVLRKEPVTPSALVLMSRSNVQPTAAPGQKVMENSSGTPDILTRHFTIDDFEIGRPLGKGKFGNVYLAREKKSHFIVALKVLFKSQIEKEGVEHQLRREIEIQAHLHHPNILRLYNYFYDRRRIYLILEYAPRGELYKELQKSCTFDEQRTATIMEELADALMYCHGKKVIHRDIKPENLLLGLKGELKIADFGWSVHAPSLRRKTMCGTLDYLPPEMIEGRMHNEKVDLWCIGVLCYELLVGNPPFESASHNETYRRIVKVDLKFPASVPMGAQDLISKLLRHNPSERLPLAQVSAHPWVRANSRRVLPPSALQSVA
Sequence of MAPK10 (human) (P53779 whole entry, looked up): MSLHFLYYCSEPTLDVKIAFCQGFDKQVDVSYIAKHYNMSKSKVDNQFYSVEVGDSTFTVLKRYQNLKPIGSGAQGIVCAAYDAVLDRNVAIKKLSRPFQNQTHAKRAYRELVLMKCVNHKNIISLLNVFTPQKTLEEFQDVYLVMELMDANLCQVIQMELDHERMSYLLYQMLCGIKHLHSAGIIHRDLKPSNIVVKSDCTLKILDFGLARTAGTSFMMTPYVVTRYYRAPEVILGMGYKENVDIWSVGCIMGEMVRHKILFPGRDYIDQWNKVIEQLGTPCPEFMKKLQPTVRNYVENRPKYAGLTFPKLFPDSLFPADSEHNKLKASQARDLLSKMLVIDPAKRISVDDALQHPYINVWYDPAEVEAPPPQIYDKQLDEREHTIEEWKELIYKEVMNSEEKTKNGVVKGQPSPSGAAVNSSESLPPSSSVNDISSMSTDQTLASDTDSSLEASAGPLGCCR
Sequence of TBK1 (human) (Q9UHD2 whole entry, looked up): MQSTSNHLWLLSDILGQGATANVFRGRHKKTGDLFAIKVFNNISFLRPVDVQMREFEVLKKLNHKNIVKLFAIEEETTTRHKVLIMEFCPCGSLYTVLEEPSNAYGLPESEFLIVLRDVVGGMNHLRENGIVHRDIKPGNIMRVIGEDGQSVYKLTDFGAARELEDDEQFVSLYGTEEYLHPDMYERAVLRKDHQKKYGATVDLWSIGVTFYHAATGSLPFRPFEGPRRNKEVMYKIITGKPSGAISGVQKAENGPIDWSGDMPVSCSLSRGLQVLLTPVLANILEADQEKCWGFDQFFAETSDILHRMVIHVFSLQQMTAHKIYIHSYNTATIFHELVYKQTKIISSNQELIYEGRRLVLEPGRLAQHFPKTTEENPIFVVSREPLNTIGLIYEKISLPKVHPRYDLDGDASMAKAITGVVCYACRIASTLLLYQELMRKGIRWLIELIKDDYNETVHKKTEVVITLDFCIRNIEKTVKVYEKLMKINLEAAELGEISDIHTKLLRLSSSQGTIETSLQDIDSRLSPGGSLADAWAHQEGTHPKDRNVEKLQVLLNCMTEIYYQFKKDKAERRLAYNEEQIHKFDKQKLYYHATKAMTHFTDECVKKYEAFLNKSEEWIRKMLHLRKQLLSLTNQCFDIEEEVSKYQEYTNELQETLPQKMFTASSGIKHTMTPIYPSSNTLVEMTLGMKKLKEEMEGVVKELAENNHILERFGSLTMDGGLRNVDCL
Sequence of BRSK2 (human) (Q8IWQ3 whole entry, looked up): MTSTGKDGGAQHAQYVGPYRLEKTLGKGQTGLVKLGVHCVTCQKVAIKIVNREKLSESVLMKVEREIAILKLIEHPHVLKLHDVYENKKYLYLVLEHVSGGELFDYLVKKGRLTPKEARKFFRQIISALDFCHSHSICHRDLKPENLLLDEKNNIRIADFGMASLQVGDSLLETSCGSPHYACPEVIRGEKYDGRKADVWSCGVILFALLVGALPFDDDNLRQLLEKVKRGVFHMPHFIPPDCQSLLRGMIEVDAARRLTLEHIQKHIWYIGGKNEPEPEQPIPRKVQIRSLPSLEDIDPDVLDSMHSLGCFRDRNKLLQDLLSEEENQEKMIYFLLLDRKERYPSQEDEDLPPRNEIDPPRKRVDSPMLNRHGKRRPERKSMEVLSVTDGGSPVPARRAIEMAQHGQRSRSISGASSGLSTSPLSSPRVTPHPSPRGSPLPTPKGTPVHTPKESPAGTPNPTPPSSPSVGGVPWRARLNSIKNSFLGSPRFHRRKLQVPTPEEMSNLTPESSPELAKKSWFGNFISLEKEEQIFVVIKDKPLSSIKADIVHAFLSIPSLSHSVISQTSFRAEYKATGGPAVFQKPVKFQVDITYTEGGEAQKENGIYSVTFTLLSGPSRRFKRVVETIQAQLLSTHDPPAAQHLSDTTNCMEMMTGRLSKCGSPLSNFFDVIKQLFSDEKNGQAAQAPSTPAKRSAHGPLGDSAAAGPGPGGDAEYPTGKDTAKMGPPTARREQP
Sequence of CHEK1 (human) (O14757 whole entry, looked up): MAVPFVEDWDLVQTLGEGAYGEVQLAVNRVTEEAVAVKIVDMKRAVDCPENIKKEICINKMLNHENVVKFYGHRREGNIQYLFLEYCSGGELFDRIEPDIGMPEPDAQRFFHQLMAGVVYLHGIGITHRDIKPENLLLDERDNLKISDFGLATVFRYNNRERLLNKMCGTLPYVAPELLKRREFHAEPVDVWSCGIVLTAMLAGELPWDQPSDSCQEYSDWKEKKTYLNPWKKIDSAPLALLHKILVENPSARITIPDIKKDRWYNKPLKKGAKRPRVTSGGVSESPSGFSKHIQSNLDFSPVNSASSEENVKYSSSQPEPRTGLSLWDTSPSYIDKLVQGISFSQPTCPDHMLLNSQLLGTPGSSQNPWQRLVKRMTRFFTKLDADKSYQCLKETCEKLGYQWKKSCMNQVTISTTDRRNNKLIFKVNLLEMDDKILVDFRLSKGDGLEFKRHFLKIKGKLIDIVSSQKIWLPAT
Sequence of TAOK1 (human) (Q7L7X3 whole entry, looked up): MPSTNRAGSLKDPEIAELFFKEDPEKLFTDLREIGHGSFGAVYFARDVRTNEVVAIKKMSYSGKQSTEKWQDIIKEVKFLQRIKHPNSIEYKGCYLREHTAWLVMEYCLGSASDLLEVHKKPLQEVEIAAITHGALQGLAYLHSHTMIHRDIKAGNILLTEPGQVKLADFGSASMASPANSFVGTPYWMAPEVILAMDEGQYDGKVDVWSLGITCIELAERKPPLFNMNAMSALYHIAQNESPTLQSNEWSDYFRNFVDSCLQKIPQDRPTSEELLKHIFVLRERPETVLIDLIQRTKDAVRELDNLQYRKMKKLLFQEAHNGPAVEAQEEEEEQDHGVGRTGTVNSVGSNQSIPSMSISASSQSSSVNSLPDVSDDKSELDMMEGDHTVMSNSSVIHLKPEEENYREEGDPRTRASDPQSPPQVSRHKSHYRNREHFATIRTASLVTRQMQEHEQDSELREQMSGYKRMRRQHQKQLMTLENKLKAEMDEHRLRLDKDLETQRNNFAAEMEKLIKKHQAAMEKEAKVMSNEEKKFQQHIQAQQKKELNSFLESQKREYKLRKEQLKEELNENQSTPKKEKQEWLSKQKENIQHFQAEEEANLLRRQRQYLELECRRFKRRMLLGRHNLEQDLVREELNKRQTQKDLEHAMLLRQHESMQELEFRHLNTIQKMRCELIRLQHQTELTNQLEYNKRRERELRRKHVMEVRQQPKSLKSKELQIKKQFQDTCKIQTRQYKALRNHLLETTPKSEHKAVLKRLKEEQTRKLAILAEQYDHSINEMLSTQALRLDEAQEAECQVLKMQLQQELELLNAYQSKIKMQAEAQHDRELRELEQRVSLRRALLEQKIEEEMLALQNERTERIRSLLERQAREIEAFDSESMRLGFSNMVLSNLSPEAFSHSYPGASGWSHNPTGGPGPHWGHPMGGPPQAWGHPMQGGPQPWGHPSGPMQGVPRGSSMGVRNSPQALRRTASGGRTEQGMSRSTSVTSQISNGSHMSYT
Sequence of DYRK3 (human) (O43781 whole entry, looked up): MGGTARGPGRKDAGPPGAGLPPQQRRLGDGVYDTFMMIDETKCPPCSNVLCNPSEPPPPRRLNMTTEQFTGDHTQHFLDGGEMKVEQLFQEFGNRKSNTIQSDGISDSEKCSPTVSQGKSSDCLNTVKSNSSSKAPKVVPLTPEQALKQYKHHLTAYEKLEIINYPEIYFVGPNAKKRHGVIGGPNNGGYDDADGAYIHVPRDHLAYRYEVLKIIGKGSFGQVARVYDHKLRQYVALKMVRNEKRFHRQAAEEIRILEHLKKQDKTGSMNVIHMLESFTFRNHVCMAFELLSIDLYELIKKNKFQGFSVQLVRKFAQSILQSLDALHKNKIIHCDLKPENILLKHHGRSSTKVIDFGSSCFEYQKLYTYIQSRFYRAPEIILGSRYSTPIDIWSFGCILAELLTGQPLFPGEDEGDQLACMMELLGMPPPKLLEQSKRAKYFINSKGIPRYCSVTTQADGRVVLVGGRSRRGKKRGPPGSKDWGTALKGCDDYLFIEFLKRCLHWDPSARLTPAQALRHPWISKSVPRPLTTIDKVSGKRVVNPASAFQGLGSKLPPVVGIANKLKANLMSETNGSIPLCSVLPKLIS
Sequence of PHKG1 (human) (Q16816 whole entry, looked up): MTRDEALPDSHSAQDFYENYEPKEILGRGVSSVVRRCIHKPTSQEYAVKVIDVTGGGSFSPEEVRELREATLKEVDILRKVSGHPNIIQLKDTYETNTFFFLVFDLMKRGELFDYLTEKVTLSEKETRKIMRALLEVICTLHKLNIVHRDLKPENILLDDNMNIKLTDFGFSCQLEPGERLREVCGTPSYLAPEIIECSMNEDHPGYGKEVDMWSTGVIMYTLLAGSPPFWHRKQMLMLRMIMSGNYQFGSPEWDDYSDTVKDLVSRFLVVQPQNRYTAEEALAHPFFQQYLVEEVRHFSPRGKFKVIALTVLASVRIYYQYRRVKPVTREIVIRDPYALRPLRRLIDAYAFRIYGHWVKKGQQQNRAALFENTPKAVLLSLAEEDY

## CCNc1nc(Nc2cc(F)c(C(=O)N3CCOCC3)cc2OC)ncc1C(F)(F)F
[1]; compound 1.0 µM
  residual activity: 55%
[1]; compound 10.0 µM
  residual activity: 18%
[2]; compound 1.0 µM
  residual activity: 80%
[2]; compound 10.0 µM
  residual activity: 38%
[3]; compound 1.0 µM
  residual activity: 28%
[3]; compound 10.0 µM
  residual activity: 7%
[4]; compound 1.0 µM
  residual activity: 44%
[4]; compound 10.0 µM
  residual activity: 12%
[5]; compound 1.0 µM
  residual activity: 50%
[5]; compound 10.0 µM
  residual activity: 9%
[6]; compound 1.0 µM
  residual activity: 95%
[6]; compound 10.0 µM
  residual activity: 82%
[7]; compound 1.0 µM
  residual activity: 74%
[7]; compound 10.0 µM
  residual activity: 27%
[8]; compound 1.0 µM
  residual activity: 43%
[8]; compound 10.0 µM
  residual activity: 9%
[9]; compound 1.0 µM
  residual activity: 85%
[9]; compound 10.0 µM
  residual activity: 48%
[10]; compound 1.0 µM
  residual activity: 96%
[10]; compound 10.0 µM
  residual activity: 58%
[11]; compound 1.0 µM
  residual activity: 110%
[11]; compound 10.0 µM
  residual activity: 100%
[12]; compound 1.0 µM
  residual activity: 118%
[12]; compound 10.0 µM
  residual activity: 95%
[13]; compound 1.0 µM
  residual activity: 88%
[13]; compound 10.0 µM
  residual activity: 28%
[14]; compound 1.0 µM
  residual activity: 78%
[14]; compound 10.0 µM
  residual activity: 35%
[15]; compound 1.0 µM
  residual activity: 88%
[15]; compound 10.0 µM
  residual activity: 65%
[16]; compound 1.0 µM
  residual activity: 32%
[16]; compound 10.0 µM
  residual activity: 38%
[17]; compound 1.0 µM
  residual activity: 72%
[17]; compound 10.0 µM
  residual activity: 35%
[18]; compound 1.0 µM
  residual activity: 108%
[18]; compound 10.0 µM
  residual activity: 101%
[19]; compound 1.0 µM
  residual activity: 84%
[19]; compound 10.0 µM
  residual activity: 50%
[20]; compound 1.0 µM
  residual activity: 98%
[20]; compound 10.0 µM
  residual activity: 91%
[21]; compound 1.0 µM
  residual activity: 102%
[21]; compound 10.0 µM
  residual activity: 98%
[22]; compound 1.0 µM
  residual activity: 87%
[22]; compound 10.0 µM
  residual activity: 50%
[23]; compound 1.0 µM
  residual activity: 80%
[23]; compound 10.0 µM
  residual activity: 55%
[24]; compound 1.0 µM
  residual activity: 80%
[24]; compound 10.0 µM
  residual activity: 41%
[25]; compound 1.0 µM
  residual activity: 115%
[25]; compound 10.0 µM
  residual activity: 93%
[26]; compound 1.0 µM
  residual activity: 92%
[26]; compound 10.0 µM
  residual activity: 45%
[27]; compound 1.0 µM
  residual activity: 86%
[27]; compound 10.0 µM
  residual activity: 86%
[28]; compound 1.0 µM
  residual activity: 23%
[28]; compound 10.0 µM
  residual activity: 3%
[29]; compound 1.0 µM
  residual activity: 105%
[29]; compound 10.0 µM
  residual activity: 76%
[30]; compound 1.0 µM
  residual activity: 85%
[30]; compound 10.0 µM
  residual activity: 72%
[31]; compound 1.0 µM
  residual activity: 72%
[31]; compound 10.0 µM
  residual activity: 59%
[32]; compound 1.0 µM
  residual activity: 79%
[32]; compound 10.0 µM
  residual activity: 68%
[33]; compound 1.0 µM
  residual activity: 85%
[33]; compound 10.0 µM
  residual activity: 73%
[34]; compound 1.0 µM
  residual activity: 111%
[34]; compound 10.0 µM
  residual activity: 102%
[35]; compound 1.0 µM
  residual activity: 62%
[35]; compound 10.0 µM
  residual activity: 17%
[36]; compound 1.0 µM
  residual activity: 104%
[36]; compound 10.0 µM
  residual activity: 104%
